Test results as given in patent publication US20120283209A1, “ANTIBACTERIAL AMINOGLYCOSIDE ANALOGS” (Achaogen, Inc., priority 2009, published 2012).
Values after ≈ are worked out from the molar mass of the structure shown.

Experiments:
[1] = tested on: AECO001 (E. coli ATCC25922); test: MIC assay, CLSI broth microdilution; type: cell-based; conditions: Escherichia coli, Mueller Hinton Broth, 35 C, 20 hours
Method: (§1) Minimum inhibitory concentrations (MIC) were determined by reference Clinical and Laboratory Standards Institute (CLSI) broth microdilution methods per M7-A7 [2006]. Quality control ranges utilizing E. coli ATCC 25922, P. aeruginosa ATCC 27853 and S. aureus ATCC 29213, and interpretive criteria for comparator agents were as published in CLSI M100-S17 [2007]. Briefly, serial two-fold dilutions of the test compounds were prepared at 2× concentration in Mueller Hinton Broth. The compound dilutions were mixed in 96-well assay plates in a 1:1 ratio with bacterial inoculum. The inoculum was prepared by suspension of a colony from an agar plate that was prepared the previous day. Bacteria were suspended in sterile saline and added to each assay plate to obtain a final concentration of 5×10^5 CFU/mL. The plates were incubated at 35 C for 20 hours in ambient air.

[2] = tested on: APAE001 (P. aeruginosa ATCC27853); test: MIC assay, CLSI broth microdilution; type: cell-based; conditions: Pseudomonas aeruginosa, Mueller Hinton Broth, 35 C, 20 hours
Method: as §1

Row | Compound | MIC [1] [µg/mL] | MIC [2] [µg/mL]
1 | NC[C@@H](O)[C@H](O)C(=O)N[C@@H]1C[C@H](N)[C@@H](O[C@H]2O[C@H](CN)[C@@H](O)[C@@H](O)[C@H]2N)[C@H](O[C@@H]2O[C@H](CO)[C@@H](O[C@H]3O[C@@H](CN)[C@@H](O)[C@H](O)[C@H]3N)[C@H]2O)[C@H]1O [1/7] | 1 to 16 (≈ 1.37 to 21.9 µM) | ≤ 1
2 | NC[C@@H]1O[C@H](O[C@H]2[C@@H](O)[C@H](O[C@@H]3[C@@H](O)[C@H](NC(=O)[C@@H](O)[C@@H](O)CN)C[C@H](N)[C@H]3O[C@H]3O[C@H](CN)[C@@H](O)[C@@H](O)[C@H]3N)O[C@@H]2CO)[C@H](N)[C@@H](O)[C@@H]1O [2/3] | 1 to 16 (≈ 1.37 to 21.9 µM) | ≤ 1
3 | NC[C@@H](F)[C@H](O)C(=O)N[C@@H]1C[C@H](N)[C@@H](O[C@H]2O[C@H](CN)[C@@H](O)[C@@H](O)[C@H]2N)[C@H](O[C@@H]2O[C@H](CO)[C@@H](O[C@H]3O[C@@H](CN)[C@@H](O)[C@H](O)[C@H]3N)[C@H]2O)[C@H]1O [3/3] | 1 to 16 (≈ 1.36 to 21.8 µM) | ≤ 1
4 | NC[C@@H]1O[C@H](O[C@H]2[C@@H](O)[C@H](O[C@@H]3[C@@H](O)[C@H](NC(=O)[C@@H](O)C(F)(F)CN)C[C@H](N)[C@H]3O[C@H]3O[C@H](CN)[C@@H](O)[C@@H](O)[C@H]3N)O[C@@H]2CO)[C@H](N)[C@@H](O)[C@@H]1O [4/3] | 1 to 16 (≈ 1.33 to 21.3 µM) | ≤ 1
